Measurements published in US9884842B2, “Combretastatin analogs” (The Board of Trustees of the University of Arkansas, priority 2013, dated 2018).

Experiments:
NCI-H522 = assay: NCI growth inhibition and cytotoxicity screen, Lung Cancer panel; assay type: cell-based; details: Homo sapiens, NCI-H522, Table 1, cell line NCIH522 (Lung Cancer); for CC50: read-out: LC50 (the source's name)
OVCAR-3 = assay: cells; details: Homo sapiens; for GI50: OVCAR-3; for CC50: OVCAR-3, read-out: LC50
MDA-MB-468 = assay: cells; details: Homo sapiens; for GI50: MDA-MB-468; for CC50: MDA-MB-468, read-out: LC50
CCRF-CEM = assay: NCI growth inhibition and cytotoxicity screen, Leukemia panel; details: Homo sapiens; for CC50: read-out: LC50
MOLT-4 = assay: as above; details: Homo sapiens; for GI50: MOLT-4; for CC50: MOLT-4, read-out: LC50
SR = assay: as above; details: Homo sapiens; for CC50: read-out: LC50
MDA-MB-435 = assay: NCI growth inhibition and cytotoxicity screen, Melanoma panel; details: Homo sapiens; for GI50: MDA-MB-435; for CC50: MDA-MB-435, read-out: LC50
SK-MEL-5 = assay: as above; details: Homo sapiens; for GI50: SK-MEL-5; for CC50: SK-MEL-5, read-out: LC50
UACC-257 = assay: as above; details: Homo sapiens; for GI50: UACC-257; for CC50: UACC-257, read-out: LC50
SF-268 = assay: NCI growth inhibition and cytotoxicity screen, CNS Cancer panel; details: Homo sapiens; for GI50: SF-268; for CC50: SF-268, read-out: LC50
SNB-19 = assay: as above; details: Homo sapiens; for GI50: SNB-19; for CC50: SNB-19, read-out: LC50
NCI-H23 = assay: NCI growth inhibition and cytotoxicity screen, Lung Cancer panel; details: Homo sapiens; for GI50: NCI-H23; for CC50: NCI-H23, read-out: LC50
NCI-H322M = assay: as above; details: Homo sapiens; for CC50: read-out: LC50
COLO 205 = assay: NCI growth inhibition and cytotoxicity screen, Colon Cancer panel; details: Homo sapiens; for GI50: COLO 205; for CC50: COLO 205, read-out: LC50
HCC-2998 = assay: as above; details: Homo sapiens; for GI50: HCC 2998; for CC50: HCC 2998, read-out: LC50
HCT-116 = assay: as above; details: Homo sapiens; for GI50: HCT-116; for CC50: HCT-116, read-out: LC50
KM12 = assay: as above; details: Homo sapiens; for GI50: KM12; for CC50: KM12, read-out: LC50
ACHN = assay: NCI growth inhibition and cytotoxicity screen, Renal Cancer panel; details: Homo sapiens; for CC50: read-out: LC50
RXF 393 = assay: as above; details: Homo sapiens; for GI50: RXF 393; for CC50: RXF 393, read-out: LC50
MCF7 = assay: NCI growth inhibition and cytotoxicity screen, Breast Cancer panel; details: Homo sapiens; for GI50: MCF7; for CC50: MCF7, read-out: LC50
HS 578T = assay: as above; details: Homo sapiens; for CC50: read-out: LC50
BT-549 = assay: as above; details: Homo sapiens; for GI50: BT-549; for CC50: BT-549, read-out: LC50
T-47D = assay: as above; details: Homo sapiens, T47D; for CC50: read-out: LC50
IGROV1 = assay: NCI growth inhibition and cytotoxicity screen, Ovarian Cancer panel; details: Homo sapiens; for GI50: IGROV-1; for CC50: IGROV-1, read-out: LC50
NCI/ADR-RES = assay: as above; details: Homo sapiens; for CC50: read-out: LC50
SK-OV-3 = assay: as above; details: Homo sapiens; for GI50: SK-OV-3; for CC50: SK-OV-3, read-out: LC50
PC-3 = assay: NCI growth inhibition and cytotoxicity screen, Prostate Cancer panel; details: Homo sapiens; for GI50: PC-3; for CC50: PC-3, read-out: LC50
DU-145 = assay: as above; details: Homo sapiens; for GI50: DU-145; for CC50: DU-145, read-out: LC50

COc1cc(/C=C/c2cc3ccccc3o2)cc(OC)c1OC [Formula (I)(c)]
GI50 (NCI-H522): 0.43 nM | CC50 (NCI-H522): > 100 µM | GI50 (OVCAR-3): 0.42 nM | CC50 (OVCAR-3): 48.1 µM | GI50 (MDA-MB-468): 0.66 nM | CC50 (MDA-MB-468): > 100 µM | GI50 (CCRF-CEM): 0.42 nM | CC50 (CCRF-CEM): > 100 µM | GI50 (MOLT-4): 0.85 nM | CC50 (MOLT-4): > 100 µM | GI50 (SR): 0.09 nM | CC50 (SR): > 100 µM | GI50 (MDA-MB-435): 0.078 nM | CC50 (MDA-MB-435): > 100 µM | GI50 (SK-MEL-5): 0.34 nM | CC50 (SK-MEL-5): 42 µM | GI50 (UACC-257): 16.4 nM | CC50 (UACC-257): > 100 µM | GI50 (SF-268): 0.86 nM | CC50 (SF-268): > 100 µM | GI50 (SNB-19): 0.58 nM | CC50 (SNB-19): > 100 µM | GI50 (NCI-H23): 3.09 nM | CC50 (NCI-H23): > 100 µM | GI50 (NCI-H322M): 15.9 nM | CC50 (NCI-H322M): > 100 µM | GI50 (COLO 205): 0.4 nM | CC50 (COLO 205): 19.5 µM | GI50 (HCC-2998): 3.34 nM | CC50 (HCC-2998): > 100 µM | GI50 (HCT-116): 0.522 nM | CC50 (HCT-116): 77 µM | GI50 (KM12): 0.5 nM | CC50 (KM12): > 100 µM | GI50 (ACHN): 0.86 nM | CC50 (ACHN): > 100 µM | GI50 (RXF 393): 0.32 nM | CC50 (RXF 393): > 100 µM | GI50 (MCF7): 0.37 nM | CC50 (MCF7): > 100 µM | GI50 (HS 578T): 0.49 nM | CC50 (HS 578T): > 100 µM | GI50 (BT-549): 1.09 nM | CC50 (BT-549): 79.5 µM | GI50 (T-47D): 0.69 nM | CC50 (T-47D): > 100 µM | GI50 (IGROV1): 0.8 nM | CC50 (IGROV1): > 100 µM | GI50 (NCI/ADR-RES): 0.51 nM | CC50 (NCI/ADR-RES): > 100 µM | GI50 (SK-OV-3): 0.65 nM | CC50 (SK-OV-3): > 100 µM | GI50 (PC-3): 0.52 nM | CC50 (PC-3): > 100 µM | GI50 (DU-145): 1.86 nM | CC50 (DU-145): > 100 µM

COc1cc(OC)cc(/C(C#N)=C/c2c[nH]c3ccccc23)c1 [Formula (I)(b)]
GI50 (NCI-H522): 27.1 nM | CC50 (NCI-H522): > 100 µM | GI50 (OVCAR-3): 31.2 nM | CC50 (OVCAR-3): > 100 µM | GI50 (MDA-MB-468): > 100 nM | CC50 (MDA-MB-468): > 100 µM | GI50 (CCRF-CEM): 42.4 nM | CC50 (CCRF-CEM): > 100 µM | GI50 (MOLT-4): 49.1 nM | CC50 (MOLT-4): > 100 µM | GI50 (SR): 33.4 nM | CC50 (SR): > 100 µM | GI50 (MDA-MB-435): 20.3 nM | CC50 (MDA-MB-435): > 100 µM | GI50 (SK-MEL-5): 48.6 nM | CC50 (SK-MEL-5): > 100 µM | GI50 (UACC-257): 48.7 nM | CC50 (UACC-257): > 100 µM | GI50 (SF-268): 78.3 nM | CC50 (SF-268): > 100 µM | GI50 (SNB-19): 62.1 nM | CC50 (SNB-19): > 100 µM | GI50 (NCI-H23): > 100 nM | CC50 (NCI-H23): > 100 µM | CC50 (NCI-H322M): > 100 µM | GI50 (COLO 205): 47.7 nM | CC50 (COLO 205): 15.2 µM | GI50 (HCC-2998): > 100 nM | CC50 (HCC-2998): > 100 µM | GI50 (HCT-116): 42.5 nM | CC50 (HCT-116): > 100 µM | GI50 (KM12): 40.9 nM | CC50 (KM12): > 100 µM | GI50 (ACHN): > 100 nM | CC50 (ACHN): > 100 µM | GI50 (RXF 393): 83.7 nM | CC50 (RXF 393): > 100 µM | GI50 (MCF7): 41.4 nM | CC50 (MCF7): > 100 µM | GI50 (HS 578T): > 100 nM | CC50 (HS 578T): > 100 µM | GI50 (BT-549): > 100 nM | CC50 (BT-549): > 100 µM | GI50 (T-47D): > 100 nM | CC50 (T-47D): > 100 µM | GI50 (IGROV1): > 100 nM | CC50 (IGROV1): > 100 µM | GI50 (NCI/ADR-RES): 33.3 nM | CC50 (NCI/ADR-RES): > 100 µM | GI50 (SK-OV-3): > 100 nM | CC50 (SK-OV-3): > 100 µM | GI50 (PC-3): 75.5 nM | CC50 (PC-3): > 100 µM | GI50 (DU-145): > 100 nM | CC50 (DU-145): > 100 µM

COc1cc(/C=C/c2nc3ccccc3s2)cc(OC)c1OC [Formula (I)(d)]
GI50 (NCI-H522): 0.16 nM | CC50 (NCI-H522): 47.9 µM | GI50 (OVCAR-3): 0.069 nM | CC50 (OVCAR-3): > 100 µM | GI50 (MDA-MB-468): 0.82 nM | CC50 (MDA-MB-468): > 100 µM | GI50 (CCRF-CEM): 0.13 nM | CC50 (CCRF-CEM): > 100 µM | GI50 (MOLT-4): 1.28 nM | CC50 (MOLT-4): > 100 µM | GI50 (SR): 0.036 nM | CC50 (SR): > 100 µM | GI50 (MDA-MB-435): 0.024 nM | CC50 (MDA-MB-435): 44.6 µM | GI50 (SK-MEL-5): 0.047 nM | CC50 (SK-MEL-5): 34 µM | GI50 (UACC-257): 15 nM | CC50 (UACC-257): > 100 µM | GI50 (SF-268): 0.56 nM | CC50 (SF-268): > 100 µM | GI50 (SNB-19): 0.095 nM | CC50 (SNB-19): > 100 µM | GI50 (NCI-H23): 0.72 nM | CC50 (NCI-H23): > 100 µM | CC50 (NCI-H322M): > 100 µM | GI50 (COLO 205): 0.049 nM | CC50 (COLO 205): 24.6 µM | GI50 (HCC-2998): 2.23 nM | CC50 (HCC-2998): 63.5 µM | GI50 (HCT-116): 0.0072 nM | CC50 (HCT-116): > 100 µM | GI50 (KM12): 0.072 nM | CC50 (KM12): 41.6 µM | GI50 (ACHN): 1.22 nM | CC50 (ACHN): > 100 µM | GI50 (RXF 393): 0.14 nM | CC50 (RXF 393): 97.6 µM | GI50 (MCF7): 0.31 nM | CC50 (MCF7): 51.5 µM | GI50 (HS 578T): 0.17 nM | CC50 (HS 578T): > 100 µM | GI50 (BT-549): 3.7 nM | CC50 (BT-549): 58.8 µM | GI50 (T-47D): 0.96 nM | CC50 (T-47D): > 100 µM | GI50 (IGROV1): 0.24 nM | CC50 (IGROV1): 94.2 µM | GI50 (NCI/ADR-RES): 0.1 nM | CC50 (NCI/ADR-RES): > 100 µM | GI50 (SK-OV-3): 0.16 nM | CC50 (SK-OV-3): > 100 µM | GI50 (PC-3): 0.13 nM | CC50 (PC-3): > 100 µM | GI50 (DU-145): 0.27 nM | CC50 (DU-145): > 100 µM
